Results as given in patent publication US7404962B1, “Combination kit used in the treatment of malaria” (Nicholas Piramal India Limited, priority 2000, dated 2008).
Read-outs that look alike come from different tables or passages of the source.

Assays:
[1] = system: anti-oxidant defense enzymes; details: literature; cited from earlier work
[2] = Methemoglobin toxicity study in healthy human volunteers; format: in vivo
Procedure: 3-[1-[[4-[(6-methoxy-8-quinolinyl)amino]pentyl]amino]ethylidene]-dihydro-2(3H)furanone (I) was evaluated vis-à-vis primaquine for toxicity related to methemoglobin formation in human.
The methemoglobin toxicity of compound I was evaluated via-à-vis that of primaquine in normal human volunteers.

P. cynomolgi = test: Radical curative activity against P. cynomolgi in rhesus monkeys; format: in vivo
Procedure: The radical curative anti-malarial activity and toxicity of the compound I was evaluated and compared with that caused by primaquine.
Combination regimen of chloroquine and 3-[1-[[4-[(6-methoxy-8-quinolinyl)amino]pentyl]amino]ethylidene]-dihydro-2(3H)furanone(I) tested against P. cynomolgi in rhesus monkeys.
The therapeutic effect of the combination regimen consisting of chloroquine and 3-[1-[[4-[(6-methoxy-8-quinolinyl)amino]pentyl]amino]-ethylidene]-4,5-dihydro-2(3H)furanone (I) was tested against P. cynomolgi in rhesus monkeys. 3-[1-[[4-[(6-methoxy-8-quinolinyl)-amino]pentyl]amino]ethylidene]-dihydro-2(3H)furanone(I) was administered in the dose level of 4.00 mg/kg (to 3 monkeys), 3.00 mg/kg (to 3 monkeys), 2.50 mg/kg (to 4 monkeys), 2.00 mg/kg (to 3 monkeys) and 1.25 mg/kg (to 9 monkeys) for 7 days. Chloroquine was administered as a companion drug at 5 mg/kg (base) dose. Minimum curative dose of compound I was found 1.25 mg/kg in 9 monkeys.

P. vivax = test: Clinical evaluation of the combination kit in patients, one year surveillance study; format: in vivo, human; details: compound I 25 mg vs primaquine 15 mg, each with chloroquine
Procedure: The efficacy of the combination kit of the present invention, containing compound I (25 mg) was clinically evaluated and compared with primaquine (15 mg) used in combination with chloroquine in a group of patients over a one year surveillance study.

[3] = literature; cited from earlier work
[4] = literature, cited from earlier work

SMILES	effect on anti-oxidant defense enzymes versus primaquine [1]	methemoglobin level before dosing ([2]; human, in vivo)	curative effect at doses higher than 1.25 mg/kg (P. cynomolgi; 2.0, 2.50, 3.00 and 4.00 mg/kg (base) for 7 days, chloroquine 5 mg/kg (base))	Minimum curative dose (P. cynomolgi; 9 rhesus monkeys, 7 days, chloroquine companion drug at 5 mg/kg (base))	blood smears after stopping the treatment (P. cynomolgi; all monkeys observed over a period of 100 days)	curative (P. cynomolgi; rhesus monkeys, 7 days, dose range 1.25 mg/kb to 4 mg/kg)	relapse after stopping the treatment (P. cynomolgi; rhesus monkeys, up to 100 days after stopping the treatment)	radical curative activity versus primaquine (P. vivax)	methemoglobin formation / toxicity versus primaquine [3]	toxicity versus primaquine [3]	anti-relapse activity versus primaquine [4]	anti-relapse activity versus primaquine ([4]; listed as compound of formula (I))	methemoglobin level after dosing ([2]; healthy human volunteers, 15 mg daily for 7 days)	methemoglobin level before dosing ([2]; healthy human volunteers, starting level)
COc1cc(NC(C)CCCN/C(C)=C2/CCOC2=O)c2ncccc2c1 (stereo not shown) [compound I, 3-[1-[[4-[(6-methoxy-8-quinolinyl)amino]pentyl]amino]ethylidene]-dihydro-2(3H)-furanone]	less effect on anti-oxidant defense enzymes than primaquine	2.29%	curative	1.25 mg/kg	remained negative	100%	no relapse observed	as effective as primaquine	less methemoglobin formation	safer and less toxic	comparable to Primaquine	comparable to primaquine		
COc1cc(NC(C)CCCN)c2ncccc2c1 (stereo not shown) [primaquine, reference compound]													16.23%	3.97%
COc1cc(C)c2c(Oc3cccc(C(F)(F)F)c3)c(OC)cc(NC(C)CCCN)c2n1 (stereo not shown) [tafenoquine, reference compound]									almost three times more than that of primaquine		more effective than primaquine			
